Laboratory results: US20020183518A1, “Modulators of proteins with phosphotyrosine recognition units” (ONTOGEN CORPORATION, priority 1995, published 2002)

Assays:
PTP-1B = molecular target: T1, PTP-1B (Homo sapiens, UniProt P18031); assay: In vitro PTPase inhibition assay (pNPP, colorimetric), PTP-1B; type: biochemical; conditions: Table 9; read-out: IC50 values against PTP1B
T1 construct: known to encode a 321 amino acid fragment containing the PTP-1B catalytic domain and having PTPase activity; made in house; host or cells: E. coli DH5α, plasmid pGEX-3X-PTP-1B
T1 sequence (P18031 3-277 limits assumed): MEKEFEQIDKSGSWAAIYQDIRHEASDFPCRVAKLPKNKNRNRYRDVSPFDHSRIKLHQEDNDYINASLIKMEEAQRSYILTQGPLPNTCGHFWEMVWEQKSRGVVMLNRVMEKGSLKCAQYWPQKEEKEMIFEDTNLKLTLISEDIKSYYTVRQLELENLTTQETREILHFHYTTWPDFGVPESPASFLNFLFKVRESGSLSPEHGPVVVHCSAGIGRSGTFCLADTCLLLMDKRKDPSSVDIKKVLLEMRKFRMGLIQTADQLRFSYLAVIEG
Experimental: PTP-1B enzymatic activity of samples was assayed in microtiter plates as follows. The protein concentration of the PTP-1B enzyme preparation was determined using the Bio-Rad Protein Assay kit (Bio-Rad, Hercules Calif.). […] Reactions were mixed gently and incubated at 37° C. for 60 minutes. Enzymatic cleavage of phosphate from pNPP (a tyrosine phosphate analog) is marked by a colorimetric change in this substrate. See, e.g., Imbert et al., Biochem J., 297:163-173 (1994); Ghosh and Miller, Biochem. Biophys. Res. […] Zanke et al., Eur. J. […] To determine the enzymatic activity, absorbance readings of the reactions were measured at 405 nm using a Molecular Devices Thermomax Plate Reader (Menlo Park Calif.). […] Purified phosphatase was added to the reaction mixtures to begin the reactions; the reactions were incubated at 37° C. for 60 min. […] (for PTP-1C and PTPα assays), stopped, and colorimetrically analyzed as described above. […] First, absorbance readings from the negative control reactions were treated as a baseline and subtracted from the absorbance readings of the experimental reactions. Then, for each reaction, a percent inhibition was calculated using the following formula: […] For each inhibitor compound tested, an IC50 concentration was calculated from a best-fit computer analysis of the calculated percent inhibition for the various dilutions of the compound. PTP-1B enzymatic activity of samples was assayed in microtiter plates as follows. The protein concentration of the PTP-1B enzyme preparation was determined using the Bio-Rad Protein Assay kit (Bio-Rad, Hercules Calif.). […] Reactions were mixed gently and incubated at 37° C. for 60 minutes. Enzymatic cleavage of phosphate from pNPP (a tyrosine phosphate analog) is marked by a colorimetric change in this substrate. See, e.g., Imbert et al., Biochem J., 297:163-173 (1994); Ghosh and Miller, Biochem. Biophys. Res. […] Zanke et al., Eur. […] To determine the enzymatic activity, absorbance readings of the reactions were measured at 405 nm using a Molecular Devices Thermomax Plate Reader (Menlo Park Calif.). […] Purified phosphatase was added to the reaction mixtures to begin the reactions; the reactions were incubated at 37° C. for 60 min. […] (for PTP-1C and PTPα assays), stopped, and calorimetrically analyzed as described above. […] First, absorbance readings from the negative control reactions were treated as a baseline and subtracted from the absorbance readings of the experimental reactions. Then, for each reaction, a percent inhibition was calculated using the following formula: […] For each inhibitor compound tested, an IC50 concentration was calculated from a best-fit computer analysis of the calculated percent inhibition for the various dilutions of the compound.

CD45 = molecular target: T2, CD45 (Homo sapiens, UniProt P08575); assay: In vitro PTPase inhibition assay (pNPP, colorimetric), CD45; type: biochemical; conditions: Table 9; read-out: IC50 values against CD45
T2 construct: The PCR reaction product (2127 bp) was digested with Sma I (New England Biolabs, Beverly Mass.) to yield a 2110 bp product; made in house; host or cells: E. coli DH5α, plasmid pET24C-CD45
T2 sequence (P08575 599-1306 limits assumed): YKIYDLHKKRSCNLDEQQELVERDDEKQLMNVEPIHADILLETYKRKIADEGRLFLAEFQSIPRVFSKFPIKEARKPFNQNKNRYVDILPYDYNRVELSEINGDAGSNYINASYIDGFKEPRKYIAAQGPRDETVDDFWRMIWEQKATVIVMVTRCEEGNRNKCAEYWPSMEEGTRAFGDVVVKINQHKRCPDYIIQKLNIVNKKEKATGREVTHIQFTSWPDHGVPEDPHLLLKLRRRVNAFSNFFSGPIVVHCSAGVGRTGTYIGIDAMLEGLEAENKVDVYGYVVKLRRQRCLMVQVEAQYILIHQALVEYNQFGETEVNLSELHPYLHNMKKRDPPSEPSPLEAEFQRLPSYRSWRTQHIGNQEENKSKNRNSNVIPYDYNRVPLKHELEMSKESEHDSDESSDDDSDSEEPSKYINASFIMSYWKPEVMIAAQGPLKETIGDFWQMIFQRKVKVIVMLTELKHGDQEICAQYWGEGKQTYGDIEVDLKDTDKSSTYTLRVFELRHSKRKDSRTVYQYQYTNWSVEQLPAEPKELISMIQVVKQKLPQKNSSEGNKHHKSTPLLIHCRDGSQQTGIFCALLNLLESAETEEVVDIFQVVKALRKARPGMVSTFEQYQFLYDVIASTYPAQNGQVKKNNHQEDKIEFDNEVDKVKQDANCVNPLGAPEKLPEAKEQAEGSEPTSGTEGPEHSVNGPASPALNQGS
Experimental: CD45 enzymatic activity of samples was assayed in microtiter plates as follows. […] Louis Mo.), and 80 ul of activity assay buffer (100 mM sodium acetate, pH 6.0, 1 mM EDTA, 0.1% Triton X-100, 15 mM bME). Reactions were mixed gently and incubated at 37° C. for 60 minutes. […] To determine the enzymatic activity, absorbance readings of the reactions were measured at 405 nm using a Molecular Devices Thermomax Plate Reader (Menlo Park Calif.). […] Purified phosphatase was added to the reaction mixtures to begin the reactions; the reactions were incubated at 37° C. for 60 min. […] (for PTP-1C and PTPα assays), stopped, and colorimetrically analyzed as described above. […] First, absorbance readings from the negative control reactions were treated as a baseline and subtracted from the absorbance readings of the experimental reactions. Then, for each reaction, a percent inhibition was calculated using the following formula: […] For each inhibitor compound tested, an IC50 concentration was calculated from a best-fit computer analysis of the calculated percent inhibition for the various dilutions of the compound. CD45 enzymatic activity of samples was assayed in microtiter plates as follows. […] Louis Mo.), and 80 ul of activity assay buffer (100 mM sodium acetate, pH 6.0, 1 mM EDTA, 0. 1% Triton X-100, 15 mM bME). Reactions were mixed gently and incubated at 37° C. for 60 minutes. […] To determine the enzymatic activity, absorbance readings of the reactions were measured at 405 nm using a Molecular Devices Thermomax Plate Reader (Menlo Park Calif.). […] Purified phosphatase was added to the reaction mixtures to begin the reactions; the reactions were incubated at 37° C. for 60 min. […] (for PTP-1C and PTPα assays), stopped, and calorimetrically analyzed as described above. […] First, absorbance readings from the negative control reactions were treated as a baseline and subtracted from the absorbance readings of the experimental reactions. Then, for each reaction, a percent inhibition was calculated using the following formula: […] For each inhibitor compound tested, an IC50 concentration was calculated from a best-fit computer analysis of the calculated percent inhibition for the various dilutions of the compound.

Compound	IC50 (PTP-1B) [µM]	IC50 (CD45) [µM]
O=C(O)/C=C/c1ccc(-c2[nH]cnc2C(=O)OCc2ccccc2)cc1 [Compound 134]	3.4	20
O=C(O)/C=C/c1ccc(-c2nc3ccccc3nc2-c2ccc(/C=C/C(=O)O)cc2)cc1 [Compound 157]	5.5	1.5
N#Cc1ccc(-c2nc(-c3ccc(/C=C/C(=O)O)cc3)c(-c3ccc(/C=C/C(=O)O)cc3)[nH]2)cc1 [Compound 73]	0.62	2.8
O=C(O)/C=C/c1ccc(-c2nc(-c3ccccc3)[nH]c2-c2ccc(/C=C/C(=O)O)cc2)cc1 [Compound 75]	0.68	3.4
O=C(O)/C=C/c1ccc(-c2nc(-c3ccc(OCc4ccccc4)cc3)[nH]c2-c2ccc(/C=C/C(=O)O)cc2)cc1 [Compound 87]	1	1.1
O=C(O)/C=C/c1ccc(-c2nc3ccc([N+](=O)[O-])cc3nc2-c2ccc(/C=C/C(=O)O)cc2)cc1 [Compound 152]	0.85	1.2
CCCCn1cnc(-c2ccc(/C=C/C(=O)O)cc2)c1-c1ccc(/C=C/C(=O)O)cc1 [Compound 94]	0.7	7
O=C(O)/C=C/c1ccc(-c2nc(-c3ccco3)[nH]c2-c2ccc(/C=C/C(=O)O)cc2)cc1 [Compound 60]	0.29	1
O=C(O)/C=C/c1ccc(-c2nc(-c3c(F)c(F)c(F)c(F)c3F)[nH]c2-c2ccc(/C=C/C(=O)O)cc2)cc1 [Compound 84]	1.2	2.7
COc1ccc(-c2nc(-c3cc(/C=C/C(=O)O)ccc3O)c(-c3cc(/C=C/C(=O)O)ccc3O)[nH]2)cc1 [Compound 91]	25.9	> 100
Cn1cc(-c2nc(-c3ccc(/C=C/C(=O)O)cc3)c(-c3ccc(/C=C/C(=O)O)cc3)[nH]2)c2ccccc21 [Compound 74]	0.64	4.2
COc1ccc(-c2nc(-c3ccc(/C=C/C(=O)O)cc3)c(-c3ccc(/C=C/C(=O)O)cc3)[nH]2)c(C)c1C [Compound 86]	1.8	7.1
Cc1ccc2nc(-c3ccc(/C=C/C(=O)O)cc3)c(-c3ccc(/C=C/C(=O)O)cc3)nc2c1 [Compound 154]	3.83	2.45
O=C(O)/C=C/c1ccc(-c2nc(-c3ccccc3F)[nH]c2-c2ccc(/C=C/C(=O)O)cc2)cc1 [Compound 78]	0.79	1.15
CCN(CC)c1ccc(-c2nc(-c3ccc(/C=C/C(=O)O)cc3)c(-c3ccc(/C=C/C(=O)O)cc3)[nH]2)cc1 [Compound 68]	0.3	0.865
COc1ccc(-c2nc(-c3ccc(/C=C/C(=O)O)cc3)c(-c3ccc(/C=C/C(=O)O)cc3)s2)cc1 [Compound 168]	3	

Compound	IC50 (PTP-1B) [µM]	IC50 (CD45) [µM]
O=C(O)/C=C/c1ccc(-c2nc3cc(Cl)c(Cl)cc3nc2-c2ccc(/C=C/C(=O)O)cc2)cc1 [Compound 153]	2.65	1.91
CCCCCCCCNC(=O)/C=C/c1ccc(C(=O)C(=O)c2ccc(/C=C/C(=O)O)cc2)cc1 [Compound 13]	31	
CCCCNC(=O)C(OC(=O)c1ccc(/C=C/C(=O)O)cc1)C(=O)c1ccc(F)cc1 (stereo not drawn) [Compound 144]	3	
O=C(O)/C=C/c1ccc(-c2nc(-c3ccc4c(c3)OCO4)[nH]c2-c2ccc(/C=C/C(=O)O)cc2)cc1 [Compound 85]	1.5	1.8
O=C(O)/C=C/c1ccc(C(O)C(O)c2ccc(/C=C/C(=O)O)cc2)cc1 (stereo not drawn) [Compound 23]	0.27	
O=C(O)/C=C/c1ccc(-c2nc(-c3ccccc3[N+](=O)[O-])[nH]c2-c2ccc(/C=C/C(=O)O)cc2)cc1 [Compound 57]	0.25	1
CCCCNC(=O)c1oc(-c2ccc(/C=C/C(=O)O)cc2)nc1-c1ccc(F)cc1 [Compound 148]	9	
O=C(O)/C=C/c1ccc(-c2nc(-c3ccc4ccccc4n3)[nH]c2-c2ccc(/C=C/C(=O)O)cc2)cc1 [Compound 63]	1.7	2.4
O=C(O)/C=C/c1ccc(-c2nc(-c3cc(Cl)cc(Cl)c3Cl)[nH]c2-c2ccc(/C=C/C(=O)O)cc2)cc1 [Compound 82]	11.9	12.8
O=C(O)/C=C/c1ccc(-c2nc(/C=C/c3ccccc3)[nH]c2-c2ccc(/C=C/C(=O)O)cc2)cc1 [Compound 79]	4.8	8.2
COc1cccc(-c2nc(-c3ccc(/C=C/C(=O)O)cc3)c(-c3ccc(/C=C/C(=O)O)cc3)[nH]2)c1O [Compound 69]	0.41	1.9
COc1ccc(C(=O)OC(c2ccc(/C=C/C(=O)O)cc2)C(OC(=O)c2ccc(OC)cc2)c2ccc(/C=C/C(=O)O)cc2)cc1 (stereo not drawn) [Compound 162]	1.8	
COC(=O)CCCCC(=O)OC(c1ccc(/C=C/C(=O)O)cc1)C(O)c1ccc(/C=C/C(=O)O)cc1 (stereo not drawn) [Compound 29]	0.8	
COc1ccc(C(=O)OC(c2ccc(/C=C/C(=O)O)cc2)C(O)c2ccc(/C=C/C(=O)O)cc2)cc1 (stereo not drawn) [Compound 25]	0.89	
CCCCCCC(OC(=O)c1ccc(/C=C/C(=O)O)cc1)C(=O)NCC(=O)OCC (stereo not drawn) [Compound 32]	1.8	
COc1ccc(C(=O)OC(C(=O)c2ccc(/C=C/C(=O)O)cc2)c2ccc(/C=C/C(=O)O)cc2)cc1 (stereo not drawn) [Compound 27]	0.5	
